{"source": "patent US6548494B1", "about": "“Tricyclic inhibitors of poly(ADP-ribose) polymerases” (Agouron Pharmaceuticals, Inc., priority 1999, dated 2003)", "key": {"purified PARP protein": {"biological_target": "purified PARP protein (Homo sapiens, UniProt P09874)", "sequence (P09874 whole entry)": "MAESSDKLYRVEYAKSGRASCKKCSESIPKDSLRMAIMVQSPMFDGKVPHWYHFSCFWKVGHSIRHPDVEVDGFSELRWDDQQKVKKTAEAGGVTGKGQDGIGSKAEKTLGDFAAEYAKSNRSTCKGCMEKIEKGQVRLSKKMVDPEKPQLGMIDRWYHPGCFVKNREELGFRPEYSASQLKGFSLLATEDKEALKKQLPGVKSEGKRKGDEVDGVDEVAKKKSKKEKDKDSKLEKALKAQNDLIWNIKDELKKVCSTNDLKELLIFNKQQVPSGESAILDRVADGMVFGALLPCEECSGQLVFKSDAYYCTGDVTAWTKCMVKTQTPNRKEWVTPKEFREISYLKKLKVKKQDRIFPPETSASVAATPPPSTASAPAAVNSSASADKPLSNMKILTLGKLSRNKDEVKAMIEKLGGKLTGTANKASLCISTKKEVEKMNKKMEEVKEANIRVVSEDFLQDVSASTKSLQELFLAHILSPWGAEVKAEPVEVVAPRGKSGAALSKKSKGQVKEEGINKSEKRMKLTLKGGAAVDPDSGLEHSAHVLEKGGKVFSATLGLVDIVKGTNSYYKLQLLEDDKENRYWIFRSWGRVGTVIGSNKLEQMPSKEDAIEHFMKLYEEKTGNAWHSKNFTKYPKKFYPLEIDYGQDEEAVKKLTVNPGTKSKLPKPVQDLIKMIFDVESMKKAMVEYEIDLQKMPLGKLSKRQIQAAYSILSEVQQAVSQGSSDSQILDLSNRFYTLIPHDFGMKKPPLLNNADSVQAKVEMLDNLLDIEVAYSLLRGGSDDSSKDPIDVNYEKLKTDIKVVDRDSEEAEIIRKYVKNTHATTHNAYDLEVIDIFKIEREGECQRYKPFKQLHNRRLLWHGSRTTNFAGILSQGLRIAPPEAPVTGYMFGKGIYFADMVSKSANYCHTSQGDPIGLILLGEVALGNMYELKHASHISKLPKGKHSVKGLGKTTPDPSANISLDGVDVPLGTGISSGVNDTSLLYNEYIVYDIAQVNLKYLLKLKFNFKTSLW", "assay": "PARP enzyme inhibition assay", "type": "biochemical", "details": "20 nM purified PARP (5 nM for tight-binding inhibitors), 500 μM NAD+, 25° C.; several values in one cell = repeat determinations; read-out: Inhibition Constant Ki"}}, "note": "Where “and” joins values, the source holds several entries; their conditions need not be identical. Equal entries are not always repeated."}
{"compound": "O=C1NCCn2c(-c3cccc(C4OCCO4)c3)nc3cc(F)cc1c32", "note": "[Example 68, 1-(3-[1,3]Dioxolan-2-yl-phenyl)-4-fluoro-8,9-dihydro-7H-2,7,9a-triaza-benzo[cd]azulen-6-one]", "values": [{"measurement": "Ki", "setting": "purified PARP protein", "value": 5.8, "unit": "nM"}, {"measurement": "melting point", "value": "262 to 264 °C (dec.)"}]}
{"compound": "CN(C)Cc1cccc(-c2nc3cc(F)cc4c3n2CCNC4=O)c1", "note": "[Example 70, 1-(3-Dimethylaminomethyl-phenyl)-4-fluoro-8,9-dihydro-7H-2,7,9a-triaza-benzo[cd]azulen-6-one]", "values": [{"measurement": "Ki", "setting": "purified PARP protein", "value": 4.4, "unit": "nM"}, {"measurement": "melting point", "value": "215 to 217 °C (dec.)"}]}
{"compound": "CN(C)c1cc(-c2nc3cccc4c3n2CCNC4=O)ccn1", "note": "[Example 71, 1-(2-Dimethylamino-pyridin-4-yl)-8,9-dihydro-7H-2,7,9a-triaza-benzo[cd]azulen-6-one]", "values": [{"measurement": "Ki", "setting": "purified PARP protein", "value": 13, "unit": "nM"}, {"measurement": "melting point", "value": "266 to 268", "unit": "°C"}]}
{"compound": "CNCc1cccc(-c2nc3cc(F)cc4c3n2CCNC4=O)c1", "note": "[Example 72, 1-(3-Methylaminomethyl-phenyl)-4-fluoro-8,9-dihydro-7H-2,7,9a-triaza-benzo[cd]azulen-6-one]", "values": [{"measurement": "Ki", "setting": "purified PARP protein", "value": 3.5, "unit": "nM"}, {"measurement": "melting point", "value": "196 to 198", "unit": "°C"}]}
{"compound": "N#Cc1cccc(-c2nc3cccc4c3n2CCNC4=O)c1", "note": "[Example 73, 3-(6-Oxo-6,7,8,9-tetrahydro-2,7,9a-triaza-benzo[cd]azulen-1-yl)-benzonitrile]", "values": [{"measurement": "Ki", "setting": "purified PARP protein", "value": 10, "unit": "nM"}, {"measurement": "melting point", "value": "283 to 284 °C (dec.)"}]}
{"compound": "CCOC(=O)c1nc2cccc3c2n1CCNC3=O", "note": "[Example 74, 6-Oxo-6,7,8,9-tetrahydro-2,7,9a-triaza-benzo[cd]azulen-1-carboxylic Acid Ethyl Ester]", "values": [{"measurement": "Ki", "setting": "purified PARP protein", "value": 33, "unit": "nM"}, {"measurement": "melting point", "value": "237 to 239 °C (dec.)"}]}
{"compound": "O=C1NCCn2c(-c3ccc(Oc4ccccc4)cc3)nc3cccc1c32", "note": "[Example 78, 1-(4-Phenoxyphenyl)-8,9-dihydro-7H-2,7,9a-triaza-benzo[cd]azulen-6-one]", "values": [{"measurement": "Ki", "setting": "purified PARP protein", "value": 5.2, "unit": "nM"}, {"measurement": "melting point", "value": "259 to 264", "unit": "°C"}]}
{"compound": "CCOC(OCC)c1ccc(-c2nc3cc(F)cc4c3n2CCNC4=O)cc1", "note": "[Example 79, 1-(4-Diethoxymethyl-phenyl)-4-fluoro-8,9-dihydro-7H-2,7,9a-triaza-benzo[cd]azulen-6-one]", "values": [{"measurement": "Ki", "setting": "purified PARP protein", "value": 11, "unit": "nM"}, {"measurement": "melting point", "value": "219 to 221", "unit": "°C"}]}
{"compound": "O=C1NCCn2c(-c3ncc[nH]3)nc3cccc1c32", "note": "[Example 80, 1-(1H-Imidazol-2-yl)-8,9-dihydro-7H-2.7,9a-triaza-benzo[cd]azulen-6-one]", "values": [{"measurement": "Ki", "setting": "purified PARP protein", "value": 9, "unit": "nM"}, {"measurement": "melting point", "value": "227 to 228 °C (dec.)"}]}
{"compound": "O=C1NCCn2c(-c3ccc(CN4CCCC4)cc3)cc3cccc1c32", "note": "[Example 84, 6-(4-Pyrrolidin-1-ylmethyl-phenyl)-3,4-dihydro-2H-[1,4]diazepino[6,7,1-hi]indol-1-one]", "values": [{"measurement": "Ki", "setting": "purified PARP protein", "value": "6.5 nM and 7.1 nM"}, {"measurement": "melting point", "value": "146 to 148", "unit": "°C"}]}
{"compound": "O=Cc1cccc(-c2cc3cccc4c3n2CCNC4=O)c1", "note": "[Example 85, 3-(1-Oxo-1,2,3,4-tetrahydro-[1,4]diazepino[6,7,1-hi]indol-6-yl)-benzaldehyde]", "values": [{"measurement": "Ki", "setting": "purified PARP protein", "value": "12 nM and 13 nM"}, {"measurement": "melting point", "value": "192 to 194", "unit": "°C"}]}
{"compound": "CNCc1cccc(-c2cc3cccc4c3n2CCNC4=O)c1", "note": "[Example 87, 6-(3-Methylaminomethyl-phenyl)-3,4-dihydro-2H-[1,4]diazepino[6,7,1-hi]indol-1-one]", "values": [{"measurement": "Ki", "setting": "purified PARP protein", "value": "6.7 nM and 7 nM"}, {"measurement": "melting point", "value": "128 to 130", "unit": "°C"}]}
{"compound": "O=C1NCCn2c(-c3cccc(CN4CCCC4)c3)cc3cccc1c32", "note": "[Example 88, 6-(3-Pyrrolidin-1-ylmethyl-phenyl)-3,4-dihydro-2H-[1,4]diazepino[6,7,1-hi]indol-1-one]", "values": [{"measurement": "Ki", "setting": "purified PARP protein", "value": "12 nM and 13 nM"}, {"measurement": "melting point", "value": "158 to 160", "unit": "°C"}]}
{"compound": "N#Cc1c(-c2ccc(F)cc2)n2c3c(cccc13)C(=O)NCC2", "note": "[Example 91, 6-(4-Fluoro-phenyl)-1-oxo-1,2,3,4-tetrahydro-[1,4]diazepino[6,7,1-hi]indole-7-carbonitrile]", "values": [{"measurement": "Ki", "setting": "purified PARP protein", "value": 54, "unit": "nM"}, {"measurement": "melting point", "value": "248 to 250", "unit": "°C"}]}
{"compound": "NC(=O)c1c(-c2ccc(F)cc2)n2c3c(cccc13)C(=O)NCC2", "note": "[Example 92, 6-(4-Fluoro-phenyl)-1-oxo-1,2,3,4-tetrahydro-[1,4]diazepino[6,7,1-hi]indole-7-carboxylic Acid Amide]", "values": [{"measurement": "Ki", "setting": "purified PARP protein", "value": 200, "unit": "nM"}, {"measurement": "melting point", "value": "287 to 289", "unit": "°C"}]}
